Toxic doses and inconclusive results are not listed. Square brackets hold non-standard residues; d marks the D form. Peptide text beside a SMILES is read from it. * marks the point of attachment. ξ: configuration not given here. Cbz = O=C(OCc1ccccc1)*; OBn = c1ccc(CO*)cc1; Bn = c1ccc(C*)cc1; ξC = NC(CS)C(=O)O
System: P388 leukemia ip, CD2F1 mice, survival T/C
Experiment: NCI In Vivo Anticancer Drug Screen. Data for tumor model P388 Leukemia (intraperitoneal) in CD2F1 (CDF1) mice
Conditions: endpoint: median survival time, higher = longer survival
Method in brief: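 Mice carrying the transplanted tumor received test compound or vehicle. Survival was recorded in each group, and the value is the treated-group measurement divided by that of the vehicle-treated control group.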

[1] = dose: 100.0 mg/kg/injection, schedule: Q04DX003 (ip), vehicle: saline with Tween-80
[2] = dose: 50.0 mg/kg/injection, schedule: Q01DX005 (ip), vehicle: saline with Tween-80
[3] = dose: 100.0 mg/kg/injection, schedule: Q01DX005 (ip), vehicle: saline with Tween-80
[4] = dose: 200.0 mg/kg/injection, schedule: Q01DX005 (ip), vehicle: saline with Tween-80
[5] = dose: 100.0 mg/kg/injection, schedule: Q01DX009 (ip), vehicle: Klucel (hydroxypropylcellulose) (HPC)
[6] = dose: 100.0 mg/kg/injection, schedule: Q04DX002 (ip), vehicle: saline with Tween-80
[7] = dose: 200.0 mg/kg/injection, schedule: Q04DX002 (ip), vehicle: saline with Tween-80
[8] = dose: 400.0 mg/kg/injection, schedule: Q04DX002 (ip), vehicle: saline with Tween-80
[9] = dose: 50.0 mg/kg/injection, schedule: Q01DX005 (ip), vehicle: Klucel (hydroxypropylcellulose) (HPC)
[10] = dose: 100.0 mg/kg/injection, schedule: Q01DX005 (ip), vehicle: Klucel (hydroxypropylcellulose) (HPC)
[11] = dose: 200.0 mg/kg/injection, schedule: Q01DX005 (ip), vehicle: Klucel (hydroxypropylcellulose) (HPC)

For `Cc1cccc(C)c1NC(=S)N1CCC(CCCC2CCN(C(=S)Nc3c(C)cccc3C)CC2)CC1`, the T/C [1] was 86 % of control and the T/C (dose: 200.0 mg/kg/injection, schedule: Q04DX003 (ip), vehicle: saline with Tween-80) was 86 % of control.
In the case of `CC(C)=CCC/C(C)=C\C1OC(C)C(C)O1` (stereo not drawn), the T/C [2] is reported as 104 % of control, the T/C [3] is reported as 100 % of control and the T/C [4] is reported as 107 % of control.
With `C=CCn1c(=O)n(CC)c(=O)c2[nH]c(C(F)(F)F)nc21` the T/C (dose: 25.0 mg/kg/injection, schedule: Q01DX009 (ip), vehicle: Klucel (hydroxypropylcellulose) (HPC)) was 99 % of control, the T/C (dose: 50.0 mg/kg/injection, schedule: Q01DX009 (ip), vehicle: Klucel (hydroxypropylcellulose) (HPC)) was 102 % of control and the T/C [5] was 112 % of control.
With `O=c1c(C(=Nc2ccccc2)c2ccccc2)c[nH]n1-c1ccccc1` the T/C (dose: 60.0 mg/kg/injection, schedule: Q01DX005 (ip), vehicle: saline with Tween-80) was 105 % of control, the T/C (dose: 120.0 mg/kg/injection, schedule: Q01DX005 (ip), vehicle: saline with Tween-80) was 105 % of control and the T/C (dose: 240.0 mg/kg/injection, schedule: Q01DX005 (ip), vehicle: saline with Tween-80) was 105 % of control.
For `CNC(=S)NNc1nc(N(C)C)nc(N(C)C)n1`, the T/C [6] was 98 % of control, the T/C [7] was 92 % of control and the T/C [8] was 93 % of control.
In the case of `c1ccc(C2NCCS2)cc1` (stereo not drawn), the T/C [9] is reported as 100 % of control, the T/C [10] is reported as 104 % of control and the T/C [11] is reported as 104 % of control.
`Nc1nc(=S)c2[nH]c(N=Nc3ccc(S(=O)(=O)O)cc3)nc2[nH]1` was tested, and the T/C (dose: 6.25 mg/kg/injection, schedule: Q04DX003 (ip), vehicle: saline) was 123 % of control.
`CCCCCC1CCCC2NC(=O)CCC12` (stereo not drawn) was tested, and the T/C [6] was 104 % of control, the T/C [7] was 97 % of control and the T/C [8] was 89 % of control.
With `O=CC(=O)c1ccc(O)cc1` the T/C (dose: 18.8 mg/kg/injection, schedule: Q04DX003 (ip), vehicle: saline) was 101 % of control, the T/C (dose: 37.5 mg/kg/injection, schedule: Q04DX003 (ip), vehicle: saline) was 100 % of control and the T/C (dose: 75.0 mg/kg/injection, schedule: Q04DX003 (ip), vehicle: saline) was 103 % of control. For the same compound, the T/C (dose: 150.0 mg/kg/injection, schedule: Q04DX003 (ip), vehicle: saline) was 109 % of control.
For `c1cc2c3c(c1)nc(CCc1nc4cccc5c4n1CCC5)n3CCC2`, the T/C (dose: 25.0 mg/kg/injection, schedule: Q04DX003 (ip), vehicle: saline with Tween-80) was 109 % of control, the T/C (dose: 50.0 mg/kg/injection, schedule: Q04DX003 (ip), vehicle: saline with Tween-80) was 86 % of control and the T/C [1] was 86 % of control.
In the case of `CCCCCCC(=O)/C=C/c1ccc2c(c1)OCO2`, the T/C (dose: 50.0 mg/kg/injection, schedule: Q01DX009 (ip), vehicle: saline with Tween-80) is reported as 96 % of control, the T/C (dose: 100.0 mg/kg/injection, schedule: Q01DX009 (ip), vehicle: saline with Tween-80) is reported as 102 % of control and the T/C (dose: 200.0 mg/kg/injection, schedule: Q01DX009 (ip), vehicle: saline with Tween-80) is reported as 91 % of control.
For `Cn1c(=O)sc2ccccc21`, the T/C (dose: 25.0 mg/kg/injection, schedule: Q04DX002 (ip), vehicle: saline with Tween-80) was 102 % of control, the T/C (dose: 50.0 mg/kg/injection, schedule: Q04DX002 (ip), vehicle: saline with Tween-80) was 104 % of control and the T/C [6] was 110 % of control.
In the case of `C1=CCN(c2nc(N3CCOCC3)nc(N3CCCc4ccccc43)n2)CC1`, the T/C (dose: 50.0 mg/kg/injection, schedule: Q01DX009 (ip), vehicle: saline) is reported as 99 % of control, the T/C (dose: 100.0 mg/kg/injection, schedule: Q01DX009 (ip), vehicle: saline) is reported as 97 % of control and the T/C (dose: 200.0 mg/kg/injection, schedule: Q01DX009 (ip), vehicle: saline) is reported as 99 % of control.
In the case of `CCOC(=O)c1cc2c(cc1O)C1CC=C(C)[C@@H]3CCO[C@](OC)(C2)[C@]13C(=O)OC` (stereo partly drawn), the T/C (dose: 6.25 mg/kg/injection, schedule: Q01DX001 (ip), vehicle: saline with Tween-80) is reported as 106 % of control, the T/C (dose: 12.5 mg/kg/injection, schedule: Q01DX001 (ip), vehicle: saline with Tween-80) is reported as 101 % of control and the T/C (dose: 25.0 mg/kg/injection, schedule: Q01DX001 (ip), vehicle: saline with Tween-80) is reported as 111 % of control. The T/C (dose: 50.0 mg/kg/injection, schedule: Q01DX001 (ip), vehicle: saline with Tween-80) was 100 % of control.
With `COc1ccc(CC2c3cc(OC)c(OC)cc3CCN2C(C)=O)cc1OC` (stereo not drawn) the T/C (dose: 3.0 mg/kg/injection, schedule: Q01DX005 (ip), vehicle: saline with Tween-80) was 99 % of control, the T/C (dose: 6.0 mg/kg/injection, schedule: Q01DX005 (ip), vehicle: saline with Tween-80) was 102 % of control and the T/C (dose: 12.0 mg/kg/injection, schedule: Q01DX005 (ip), vehicle: saline with Tween-80) was 95 % of control.
For `CCCC1CC2=C(C(=O)c3c(OC)cccc3C2=O)C(O)(C(F)(F)F)O1` (stereo not drawn), the T/C (dose: 100.0 mg/kg/injection, schedule: Q01DX001 (ip), vehicle: Klucel (hydroxypropylcellulose) (HPC)) was 103 % of control, the T/C (dose: 200.0 mg/kg/injection, schedule: Q01DX001 (ip), vehicle: Klucel (hydroxypropylcellulose) (HPC)) was 109 % of control and the T/C (dose: 400.0 mg/kg/injection, schedule: Q01DX001 (ip), vehicle: Klucel (hydroxypropylcellulose) (HPC)) was 94 % of control.
In the case of `CCCCN1C(=O)CC(SC2CC(=O)N(CCCC)C2=O)C1=O` (stereo not drawn), the T/C [9] is reported as 97 % of control, the T/C [10] is reported as 86 % of control and the T/C [11] is reported as 103 % of control.
In the case of `CC(=O)O/N=C/c1cc[n+](C)cc1`, the T/C (dose: 25.0 mg/kg/injection, schedule: Q04DX003 (ip), vehicle: saline) is reported as 105 % of control, the T/C (dose: 50.0 mg/kg/injection, schedule: Q04DX003 (ip), vehicle: saline) is reported as 101 % of control and the T/C (dose: 100.0 mg/kg/injection, schedule: Q04DX003 (ip), vehicle: saline) is reported as 90 % of control.
In the case of `O=C(O)c1cccc2c1SC(c1ccccc1)OC2=O` (stereo not drawn), the T/C (dose: 50.0 mg/kg/injection, schedule: Q01DX005 (ip), vehicle: distilled water + alcohol) is reported as 103 % of control, the T/C (dose: 100.0 mg/kg/injection, schedule: Q01DX005 (ip), vehicle: distilled water + alcohol) is reported as 99 % of control and the T/C (dose: 200.0 mg/kg/injection, schedule: Q01DX005 (ip), vehicle: distilled water + alcohol) is reported as 109 % of control.
With `COc1ccc2c(c1)OC1CC2NC(N)=N1` (stereo not drawn) the T/C (dose: 6.25 mg/kg/injection, schedule: Q01DX009 (ip), vehicle: saline) was 100 % of control, the T/C (dose: 12.5 mg/kg/injection, schedule: Q01DX009 (ip), vehicle: saline) was 107 % of control and the T/C (dose: 25.0 mg/kg/injection, schedule: Q01DX009 (ip), vehicle: saline) was 109 % of control.
`O=C(O)c1cccc2c1Oc1c(cccc1C(=O)O)S2` was tested, and the T/C [2] was 98 % of control, the T/C [3] was 107 % of control and the T/C [4] was 108 % of control.
In the case of `O=C(CNC(=O)C(CSCc1ccccc1)NC(=O)OCc1ccccc1)NCC(=O)OCc1ccccc1` (stereo not drawn) (Cbz-[ξC](Bn)-Gly-Gly-OBn), the T/C (dose: 12.5 mg/kg/injection, schedule: Q01DX005 (ip), vehicle: Klucel (hydroxypropylcellulose) (HPC)) is reported as 102 % of control, the T/C (dose: 25.0 mg/kg/injection, schedule: Q01DX005 (ip), vehicle: Klucel (hydroxypropylcellulose) (HPC)) is reported as 95 % of control and the T/C [9] is reported as 102 % of control.
`Cc1cccc2c(=O)[nH]c(=O)[nH]c12` was tested, and the T/C [9] was 93 % of control, the T/C [10] was 89 % of control and the T/C [11] was 89 % of control.
For `[N-]=[N+]=NC1(N=[N+]=[N-])C(=O)c2cccc3c2N(CCC3)C1=O` (stereo not drawn), the T/C [9] was 92 % of control, the T/C [10] was 114 % of control and the T/C [11] was 88 % of control.
For `CCOC(=O)CNC(=O)NN(c1ccccc1)C1CCS(=O)(=O)C1` (stereo not drawn), the T/C [2] was 100 % of control, the T/C [3] was 90 % of control and the T/C [4] was 94 % of control.
In the case of `CCOC(=O)C1(C)C(=O)CC2c3nc4ccccc4cc3CN2C1=O` (stereo not drawn), the T/C [5] is reported as 95 % of control, the T/C (dose: 200.0 mg/kg/injection, schedule: Q01DX009 (ip), vehicle: Klucel (hydroxypropylcellulose) (HPC)) is reported as 95 % of control and the T/C (dose: 400.0 mg/kg/injection, schedule: Q01DX009 (ip), vehicle: Klucel (hydroxypropylcellulose) (HPC)) is reported as 104 % of control.
In the case of `Cc1cccc(NN=O)n1`, the T/C (dose: 1.5 mg/kg/injection, schedule: Q01DX009 (ip), vehicle: water) is reported as 98 % of control, the T/C (dose: 1.56 mg/kg/injection, schedule: Q01DX009 (ip), vehicle: water) is reported as 99 % of control and the T/C (dose: 3.0 mg/kg/injection, schedule: Q01DX009 (ip), vehicle: water) is reported as 107 % of control. For the same compound, the T/C (dose: 3.12 mg/kg/injection, schedule: Q01DX009 (ip), vehicle: water) was 115 % of control, the T/C (dose: 6.25 mg/kg/injection, schedule: Q01DX009 (ip), vehicle: water) was 120 % of control and the T/C (dose: 25.0 mg/kg/injection, schedule: Q01DX009 (ip), vehicle: water) was 163 % of control.

From PubChem BioAssay AID330 (DTP/NCI, 2004)
